The values below come from patent US20240218073A1, “IMMUNOMODULATORY ANTI-CD73 ANTIBODIES AND USES THEREOF” (Corvus Pharmaceuticals, Inc., priority 2019, published 2024).

The test system of one data set is B lymphocytes. Briefly: B cell activation and maturation markers by flow cytometry in vitro. Format: cell-based, human. As for the experimental part:
FIG. 6 are bar graphs showing CPI-006 directly activates B lymphocytes. Purified B cells were incubated overnight with 10 μg/mL human IgG1 isotype control or CPI-006 or anti-IgM microbeads, a positive control for BCR stimulation. Expression of activation markers CD69, CD83, CD86, CD25 or MHC-II was measured by flow cytometry. Mean fluorescence intensity (MFI) was determined for each activation marker and was normalized to the untreated condition for each donor. The figure legend from top to bottom is representative of each group of four bars from left to right. (N=3-5 donors).
FIG. 7 illustrates expression of CD69 on B cells (CD19+CD3−) as measured by flow cytometry and reported by MFI. Human PBMCs were incubated overnight with 10 μg/mL CPI-006 with or without NECA over a range of concentrations or 10 μM APCP. Expression of CD69 on B cells (CD19+CD3−) was measured by flow cytometry and MFI is reported. Error bars represent mean±SD. *p<0.05, **p<0.01 as determined by t-test.
Human B cells were stimulated in vitro with CPI-006 or CPX-016 (1 ug/ml) or an isotype control for 3 days. IgD and CD27 expression were evaluated by flow cytometry. The mean fluorescence intensity (MFI) of each marker was determined in FlowJo and normalized to CPX-016. N=3 donors shown. For each group of two bars, left bar represents treatment with […] and right bar represents treatment with CPX-006.
FIG. 13A: Purified B cells from 3-5 healthy donors were incubated overnight with human IgG1 isotype control or CPI-006 (10 μg/mL) or anti-IgM microbeads, a positive control for BCR stimulation. Expression of activation markers CD69, CD83, CD86, or MHC-II was measured by flow cytometry. […] Mean fluorescence intensity (MFI) was determined for each marker and was normalized to the untreated or isotype control for each donor. […] Expression of CD69 (MFI) was measured by flow cytometry. […] CD69 and CD73 were measured on B cells by flow cytometry. […] Expression of CD69 on B cells (CD19^POSCD3^NEG) was measured by flow cytometry. […]
(A flow cytometer gives signals particle by particle.)

Data set [1] concerns circulating CD73^POS B cells. The experiment in a line: Phase 1 trial in cancer patients: peripheral blood immunophenotyping by flow cytometry. Format: in vivo, human. The following applies: ciforadenant monotherapy.
A further data set relates to T cells. Briefly: T cell proliferation of anti-CD3/anti-CD28 activated PBMCs in the presence of AMP. To be noted: 500 nM antibody, 13 donors. The data set is classed as cell-based, human. The method, then: FIG. 12A: CD73 catalytic activity was measured with MDA-MB-231 cells or MDA-MB-231 CD73 CRISPR cells in the presence of CPI-006, oleclumab, or 1 mM APCP by adding 250 μM AMP and measuring phosphate levels in the cell culture supernatant. FIG. 12B: Human PBMCs were incubated with AMP in the presence of CPI-006, oleclumab, or isotype control antibody at the saturating concentration of 300 nM. After 4 hours of incubation, the AMP remaining in the supernatant was quantified using the CellTiterGlo assay as described in the Methods. Percentage of inhibition was plotted. Data represent 9 individual donors and error bars represent mean±SD. ****p<0.0001 as determined by t-test. FIG. 12C: Human PBMCs were activated with anti-CD3/anti-CD28 in the presence of AMP and a range of doses of CPI-006, oleclumab, or isotype control antibody. T cell proliferation was assessed by flow cytometry. T cell proliferation for 13 donors treated with 500 nM CPI-006 or oleclumab or 890 nM isotype control. Error bars represent mean±SD. *p<0.05, ***p<0.001, and ****p<0.0001 as determined by t-test. […] After 4 days in culture, IFNg levels in the supernatant were measured by AlphaLISA (Perkin Elmer). […] Error bars represent mean±SD. *p<0.05 and **p<0.01 as determined by t-test. […]

A further data set concerns the target T1, cellular CD73 (Homo sapiens, UniProt P21589).
T1 sequence (P21589 27-549): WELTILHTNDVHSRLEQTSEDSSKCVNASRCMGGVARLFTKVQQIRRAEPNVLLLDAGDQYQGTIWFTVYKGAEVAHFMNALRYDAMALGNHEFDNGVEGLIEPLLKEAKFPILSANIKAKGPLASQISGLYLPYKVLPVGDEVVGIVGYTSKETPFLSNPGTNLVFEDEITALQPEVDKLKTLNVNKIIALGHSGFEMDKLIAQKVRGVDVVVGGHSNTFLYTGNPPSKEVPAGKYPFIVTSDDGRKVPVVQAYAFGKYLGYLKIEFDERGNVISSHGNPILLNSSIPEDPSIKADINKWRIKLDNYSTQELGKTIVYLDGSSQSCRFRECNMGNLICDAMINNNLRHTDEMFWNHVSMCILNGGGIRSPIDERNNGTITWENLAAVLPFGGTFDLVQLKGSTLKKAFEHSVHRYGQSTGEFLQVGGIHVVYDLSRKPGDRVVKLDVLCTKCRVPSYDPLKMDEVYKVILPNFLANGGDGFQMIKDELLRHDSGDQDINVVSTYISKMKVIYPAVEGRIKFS
The experiment in a line: CD73 catalytic activity on MDA-MB-231 cells (phosphate released from AMP). To be noted: 250 μM AMP, baseline from CRISPR CD73 knockout cells and 1 mM APCP.

For data set [2], the target named is T2, CD73 expressed on primary human peripheral blood mononuclear cells (Homo sapiens, UniProt P21589).
T2 sequence (P21589 27-549): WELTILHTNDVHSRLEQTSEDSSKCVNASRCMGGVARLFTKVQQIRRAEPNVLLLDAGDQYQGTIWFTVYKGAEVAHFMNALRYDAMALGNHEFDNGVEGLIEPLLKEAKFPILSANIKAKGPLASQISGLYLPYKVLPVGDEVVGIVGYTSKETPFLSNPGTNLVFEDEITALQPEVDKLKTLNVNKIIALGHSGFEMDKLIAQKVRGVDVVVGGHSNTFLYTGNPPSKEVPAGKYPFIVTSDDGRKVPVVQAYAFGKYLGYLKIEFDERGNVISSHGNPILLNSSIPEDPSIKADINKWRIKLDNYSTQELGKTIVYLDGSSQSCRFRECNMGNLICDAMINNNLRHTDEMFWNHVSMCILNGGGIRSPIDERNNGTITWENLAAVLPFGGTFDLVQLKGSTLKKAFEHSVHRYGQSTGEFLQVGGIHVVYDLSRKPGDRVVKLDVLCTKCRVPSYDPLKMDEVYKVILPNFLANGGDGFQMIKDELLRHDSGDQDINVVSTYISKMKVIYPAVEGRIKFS
The experiment in a line: CD73 enzymatic activity on primary human PBMCs (AMP remaining, CellTiterGlo). The following applies: 300 nM antibody, 4 hours incubation with AMP, 9 donors. A general note: ATP-based viability assays read luminescence as a measure of living cells.

In another data set the target is T3, human CD73 (human, UniProt P21589 27-549).
T3 construct: also called CD73 antigen; 5'-nucleotidase
T3 sequence (looked up): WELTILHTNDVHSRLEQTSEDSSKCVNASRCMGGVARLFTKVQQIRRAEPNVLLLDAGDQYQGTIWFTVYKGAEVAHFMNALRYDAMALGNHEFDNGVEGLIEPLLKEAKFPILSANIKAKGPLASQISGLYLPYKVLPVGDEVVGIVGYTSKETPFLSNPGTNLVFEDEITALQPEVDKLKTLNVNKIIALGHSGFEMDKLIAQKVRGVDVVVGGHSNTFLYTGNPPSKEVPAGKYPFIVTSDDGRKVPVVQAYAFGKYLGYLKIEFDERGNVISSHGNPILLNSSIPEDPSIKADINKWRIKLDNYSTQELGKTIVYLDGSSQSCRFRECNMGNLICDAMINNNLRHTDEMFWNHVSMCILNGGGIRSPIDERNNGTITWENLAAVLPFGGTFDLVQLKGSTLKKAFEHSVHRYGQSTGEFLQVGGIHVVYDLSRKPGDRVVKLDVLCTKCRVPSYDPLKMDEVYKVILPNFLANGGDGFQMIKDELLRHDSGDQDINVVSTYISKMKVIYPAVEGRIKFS
Briefly: bio-layer interferometry (Octet HTX, 25 C; antibody on anti-human IgG Fc capture sensors, antigen in solution from 300 nM, 1:1 model). (BLI is a label-free optical method that tracks binding on a fibre tip over time.)

For `CCNC(=O)[C@H]1O[C@@H](n2cnc3c(N)ncnc32)[C@H](O)[C@@H]1O` [NECA, 5′-(N-ethylcarboxamido)adenosine, reference compound], the “effect on induction of activation markers by CPI-006” value in the data set on B lymphocytes (human PBMCs, CPI-006 10 μg/mL overnight, NECA over a range of concentrations) is recorded as “did not block the induction of activation markers by CPI-006”.

Regarding `Cc1ccc(-c2nc(N)nc3c2nnn3Cc2cccc(CO[C@H]3CCOC3)n2)o1` [ciforadenant], the “B cell numbers or immunophenotype” value in data set [1] is given as “no changes in B cell numbers or immunophenotype”.

For the molecule “oleclumab: another anti-CD73 antibody that binds a non-overlapping epitope; expressed as human lambda/IgG1-TM antibody”, the T cell proliferation result in the data set on T cells was “restored T cell proliferation in a subset of donors but did not reach the magnitude of the CPI-006 response”. Further, the “B cell activation (CD69 expression) by other anti-CD73 antibodies” value with B lymphocytes (antibodies that do not cross-block CPI-006) is listed as “fail to induce activation”. Also, the “CD73 activity (free phosphate levels generated upon conversion of AMP to adenosine)” value in the data set with cellular CD73 was “only partially reduced CD73 activity”. Further, the “enzymatic activity of CD73 on PBMCs” value in data set [2] was “partial effect on enzymatic activity”.

B1: CPI-006 (antibody, human IgG1, kappa, N297Q, V domains shown)
VH: QVQLVQSGAEVEKPGASVKVSCKASGYTFTSYWITWVRQAPGQGLEWMGDIYPGSGNTNYNEKFKTRVTITADKSTSTAYMELSSLRSEDTAVYYCAKEGGLTTEDYALDYWGQGTLVTVSS
VL: EIVLTQSPATLSLSPGERATLSCRASKNVSTSGYSYMHWYQQKPGQAPRLLIYLASNLESGIPPRFSGSGYGTDFTLTINNIESEDAAYYFCQHSRELPFTFGQGTKVEIKR
What is called Kd is the constant that tells how readily two partners part at equilibrium. Lower therefore signals tighter binding. As to B1, in the data set with human CD73, the Kd was determined as 200 pM.

B2: CPI-006 immunoglobulin Fab fragments: Fab fragments of CPI-006 prepared using the Pierce Fab Preparation kit (antibody, chains of the INN, looked up, V domains shown)
VH: QVQLVQSGAEVEKPGASVKVSCKASGYTFTSYWITWVRQAPGQGLEWMGDIYPGSGNTNYNEKFKTRVTITADKSTSTAYMELSSLRSEDTAVYYCAKEGGLTTEDYALDYWGQGTLVTVSS
VL: EIVLTQSPATLSLSPGERATLSCRASKNVSTSGYSYMHWYQQKPGQAPRLLIYLASNLESGIPPRFSGSGYGTDFTLTINNIESEDAAYYFCQHSRELPFTFGQGTKVEIK
modifications: Fab
notes: Fab fragments of CPI-006 prepared using the Pierce Fab Preparation kit
Turning to B2, the “expression levels of CD69 with Fab fragments” value in the data set with B lymphocytes (purified B cells, overnight, equimolar to 10 μg/mL CPI-006) is “minimal effect on expression levels of CD69”.
